Consider 17 compounds from patent US7902354B2, “Lapachone compounds and methods of use thereof” (ArQule, Inc., priority 2006, dated 2011).

The term IC50 denotes the concentration needed to halve the response being measured.

Holding throughout (assay type): cell-based
In assay [1] the test system is NCM-460 normal colon epithelial cells. The assay can be described thus: MTS cell viability assay, NCM-460 normal colon epithelial cells. The following applies: for IC50: Homo sapiens, NCM460, NCM-460, 4 h compound incubation, MTS, read-out: IC50 Values, Normal Cells, Colon NCM-460; for Fold Selectivity (NCM-460/DLD1): ratio of IC50 NCM-460 / DLD1. In general terms: Tetrazolium dyes change colour on reduction, which living cells bring about.

For assay [2], the system named is K-562 human leukemia cells. Briefly: MTS cell viability assay, K-562 human leukemia cells. To be noted: K562, K-562, 4 h compound incubation, MTS, read-out: IC50 Values, Cancerous Cells, Leukemia K-562.
Assay [3] has as its system DU-145 human prostate carcinoma cells. The assay can be described thus: MTS cell viability assay, DU-145 human prostate carcinoma cells. The following applies: DU-145, 4 h compound incubation, MTS, read-out: IC50 Values, Cancerous Cells, Prostate DU-145.
The subject of assay [4] is PACA-2 human pancreatic carcinoma cells. Briefly: MTS cell viability assay, PACA-2 human pancreatic carcinoma cells. To be noted: PACA-2, 4 h compound incubation, MTS, read-out: IC50 Values, Cancerous Cells, Pancreas PACA-2.
Assay [5] deals with DLD-1 human colon carcinoma cells. Briefly: MTS cell viability assay, DLD-1 human colon carcinoma cells. To be noted: DLD-1, 4 h compound incubation, MTS, read-out: IC50 Values, Cancerous Cells, Colon DLD-1.
The subject of assay [6] is A549 human lung carcinoma cells. Briefly: MTS cell viability assay, A549 human lung carcinoma cells. To be noted: A549, 4 h compound incubation, MTS, read-out: IC50 Values, Cancerous Cells, Lung A549.

Consider `O=C1C(=O)c2ccccc2C2=C1SCC1(CCN(C(=O)c3cccnc3)CC1)O2` [Compound 59, 1′-(pyridin-3-ylcarbonyl)spiro[naphtho[1,2-b][1,4]oxathiine-2,4′-piperidine]-5,6-dione], for which the IC50 in assay [1] amounted to 10.7 µM; in assay [2] it was 4.24 µM; in assay [3], 10.4 µM; in assay [4], 4.24 µM; in assay [5] it was 4.1 µM; in assay [6] it was 16.8 µM. In addition, in assay [1], the “Fold Selectivity (NCM-460/DLD1)” value came to 2.6.
On to `O=C1C(=O)c2ccccc2C2=C1SCC1(CCN(C3CCCC3)CC1)O2` [Compound 138, 1′-cyclopentylspiro[naphtho[1,2-b][1,4]oxathiine-2,4′-piperidine]-5,6-dione], for which the IC50 worked out at 3.55 µM in assay [1]; 1.43 µM in assay [2]; 2.52 µM in assay [3]; 1.48 µM in assay [4]; 1.43 µM in assay [5]; 7.8 µM in assay [6]. Moreover, the “Fold Selectivity (NCM-460/DLD1)” value in assay [1] amounted to 2.5.
In the case of `O=C1C(=O)c2ccccc2C2=C1SCC1(CCN(C(=O)Nc3ccc(F)cc3)CC1)O2` [Compound 85, N-(4-fluorophenyl)-5,6-dioxo-5,6-dihydro-1′H-spiro[naphtho[1,2-b][1,4]oxathiine-2,4′-piperidine]-1′-carboxamide], the IC50 in assay [1] worked out at 3.31 µM; in assay [2] it was 1.32 µM; in assay [3], 1.88 µM; in assay [4] it was 1.14 µM; in assay [5], 1.29 µM; in assay [6], 6.38 µM. Further, the “Fold Selectivity (NCM-460/DLD1)” value in assay [1] is recorded as 2.6.
For `O=C1C(=O)c2ccccc2C2=C1SCC1(CCN(CC(O)COc3ccccc3Cl)CC1)O2` (centres unmarked) [Compound 172, 1′-[3-(2-chlorophenoxy)-2-hydroxypropyl]spiro[naphtho[1,2-b][1,4]oxathiine-2,4′-piperidine]-5,6-dione], the IC50 in assay [1] is 5.53 µM; in assay [2], 1.48 µM; in assay [3], 1.55 µM; in assay [4], 1.09 µM; in assay [5], 1.36 µM; in assay [6], 6.16 µM. The “Fold Selectivity (NCM-460/DLD1)” value in assay [1] came out at 4.1.
With `C=CCCN1CCC2(CC1)CSC1=C(O2)c2ccccc2C(=O)C1=O` [Compound 143, 1′-but-3-en-1-ylspiro[naphtho[1,2-b][1,4]oxathiine-2,4′-piperidine]-5,6-dione], the IC50 came out at 6.39 µM in assay [1]; 3.29 µM in assay [2]; 4.26 µM in assay [3]; 2.5 µM in assay [4]; 2.14 µM in assay [5]; 7.39 µM in assay [6]. Further, in assay [1], the “Fold Selectivity (NCM-460/DLD1)” value is 3.0.
For `Cc1ccc(NC(=O)N2CCC3(CC2)CSC2=C(O3)c3ccccc3C(=O)C2=O)cn1` [Compound 91, N-(6-methylpyridin-3-yl)-5,6-dioxo-5,6-dihydro-1′H-spiro[naphtho[1,2-b][1,4]oxathiine-2,4′-piperidine]-1′-carboxamide], the 50% inhibitory concentration (IC50) worked out at 9 µM in assay [1]; 1.45 µM in assay [2]; 2.87 µM in assay [3]; 1.35 µM in assay [4]; 1.6 µM in assay [5]; 10.2 µM in assay [6]. In addition, in assay [1], the “Fold Selectivity (NCM-460/DLD1)” value is given as 5.6.
For `C=CC(C)(O)CN1CCC2(CC1)CSC1=C(O2)c2ccccc2C(=O)C1=O` (centres unmarked) [Compound 159, 1′-(2-hydroxy-2-methylbut-3-en-1-yl)spiro[naphtho[1,2-b][1,4]oxathiine-2,4′-piperidine]-5,6-dione], the IC50 in assay [1] was determined as 10.2 µM; in assay [2], 4.13 µM; in assay [3] it was 5.03 µM; in assay [4], 4.03 µM; in assay [5] it was 4.47 µM; in assay [6], 14.3 µM. Further, the “Fold Selectivity (NCM-460/DLD1)” value in assay [1] is 2.3.
As to `O=C1C(=O)c2ccccc2C2=C1SCC1(CCN(C(=O)Nc3ccccc3)CC1)O2` [Compound 84, 5,6-dioxo-N-phenyl-5,6-dihydro-1′H-spiro[naphtho[1,2-b][1,4]oxathiine-2,4′-piperidine]-1′-carboxamide], the IC50 stood at 19.1 µM in assay [1]; 6.83 µM in assay [2]; 10.3 µM in assay [3]; 6.38 µM in assay [4]; 4.69 µM in assay [5]; 16.9 µM in assay [6]. Moreover, the “Fold Selectivity (NCM-460/DLD1)” value in assay [1] stood at 4.1.
For the compound `O=C1C(=O)c2ccccc2C2=C1SCC1(CCN(C3CCCCC3)CC1)O2` [Compound 258, 1′-cyclohexylspiro[naphtho[1,2-b][1,4]oxathiine-2,4′-piperidine]-5,6-dione], the concentration for half-maximal inhibition (IC50) in assay [1] was determined as 5.91 µM; in assay [2], 1.49 µM; in assay [3], 3.9 µM; in assay [4], 1.99 µM; in assay [5], 1.49 µM; in assay [6] it was 5.42 µM. The “Fold Selectivity (NCM-460/DLD1)” value in assay [1] is on record as 4.0.
As to `N#Cc1ccc(CN2CCC3(CC2)CSC2=C(O3)c3ccccc3C(=O)C2=O)cc1` [Compound 123, 4-[(5,6-dioxo-5,6-dihydro-1′H-spiro[naphtho[1,2-b][1,4]oxathiine-2,4′-piperidine]-1′-yl)methyl]benzonitrile], the IC50 was determined as 9.96 µM in assay [1]; 4.09 µM in assay [2]; 4.32 µM in assay [3]; 4.18 µM in assay [4]; 4.37 µM in assay [5]; 36.8 µM in assay [6]. Moreover, the “Fold Selectivity (NCM-460/DLD1)” value in assay [1] is reported as 2.3.
On to `Cc1cc(C(=O)N2CCC3(CC2)CSC2=C(O3)c3ccccc3C(=O)C2=O)n(C)n1` [Compound 42, 1′-[(1,3-dimethyl-1H-pyrazol-5-yl)carbonyl]spiro[naphtho[1,2-b][1,4]oxathiine-2,4′-piperidine]-5,6-dione], for which the IC50 in assay [1] worked out at 12.6 µM; in assay [2], 5.64 µM; in assay [3], 12.7 µM; in assay [4], 5.12 µM; in assay [5], 8.95 µM; in assay [6], 43 µM. Also, the “Fold Selectivity (NCM-460/DLD1)” value in assay [1] is given as 1.4.
As for `Cc1nn(C)c(C)c1S(=O)(=O)N1CCC2(CC1)CSC1=C(O2)c2ccccc2C(=O)C1=O` [Compound 80, 1′-[(1,3,5-trimethyl-1H-pyrazol-4-yl)sulfonyl]spiro[naphtho[1,2-b][1,4]oxathiine-2,4′-piperidine]-5,6-dione], the IC50 in assay [1] turned out to be 12.9 µM; in assay [2], 3.81 µM; in assay [3], 4.25 µM; in assay [4], 3.35 µM; in assay [5], 3.53 µM; in assay [6], 18.3 µM. Also, in assay [1], the “Fold Selectivity (NCM-460/DLD1)” value stood at 3.7.
Turning to `O=C1C(=O)c2ccccc2C2=C1SCC1(CCN(C(=O)c3ccncc3)CC1)O2` [Compound 57, 1′-isonicotinoylspiro[naphtho[1,2-b][1,4]oxathiine-2,4′-piperidine]-5,6-dione], the IC50 in assay [1] was 9.91 µM; in assay [2], 4.37 µM; in assay [3] it was 12.2 µM; in assay [4] it was 5.36 µM; in assay [5], 4.29 µM; in assay [6] it was 24.8 µM. Also, the “Fold Selectivity (NCM-460/DLD1)” value in assay [1] was found to be 2.3.
With `CCCCC(O)CN1CCC2(CC1)CSC1=C(O2)c2ccccc2C(=O)C1=O` (centres unmarked) [Compound 162, 1′-(2-hydroxyhexyl)spiro[naphtho[2-b][1,4]oxathiine-2,4′-piperidine]-5,6-dione], the IC50 in assay [1] was 2.8 µM; in assay [2] it was 1.5 µM; in assay [3], 2.77 µM; in assay [4], 1.45 µM; in assay [5], 1.36 µM; in assay [6] it was 6.95 µM. Further, in assay [1], the “Fold Selectivity (NCM-460/DLD1)” value came out at 2.1.
With `O=C1C(=O)c2ccccc2C2=C1SCC1(CCN(C(=O)Nc3ccc(Cl)c(Cl)c3)CC1)O2` [Compound 87, N-(3,4-dichlorophenyl)-5,6-dioxo-5,6-dihydro-1′H-spiro[naphtho[1,2-b][1,4]oxathiine-2,4′-piperidine]-1′-carboxamide], the IC50 worked out at 30.5 µM in assay [1]; 3.11 µM in assay [2]; 0.888 µM in assay [3]; 1.34 µM in assay [4]; 3.04 µM in assay [5]; 3.31 µM in assay [6]. For the same compound, the “Fold Selectivity (NCM-460/DLD1)” value in assay [1] amounted to 10.0.
On to `CC(C(=O)Nc1ccccc1)N1CCC2(CC1)CSC1=C(O2)c2ccccc2C(=O)C1=O` (centres unmarked) [Compound 134, 2-(5,6-dioxo-5,6-dihydro-1′H-spiro[naphtho[1,2-b][1,4]oxathiine-2,4′-piperidin]-1′-yl)-N-phenylpropanamide], for which the IC50 was determined as 15.6 µM in assay [1]; 7.22 µM in assay [2]; 6.87 µM in assay [3]; 4.43 µM in assay [4]; 3.94 µM in assay [5]; 23.3 µM in assay [6]. Besides, the “Fold Selectivity (NCM-460/DLD1)” value in assay [1] is 4.0.
Regarding `O=C1C(=O)c2ccccc2C2=C1SCC1(CCN(CC(O)COCc3ccccc3)CC1)O2` (centres unmarked) [Compound 171, 1′-[3-(benzyloxy)-2-hydroxypropyl]spiro[naphtho[12-b][1,4]oxathiine-2,4′-piperidine]-5,6-dione], the IC50 in assay [1] amounted to 9.69 µM; in assay [2], 3.6 µM; in assay [3], 3.22 µM; in assay [4], 1.46 µM; in assay [5], 1.34 µM; in assay [6] it was 6.55 µM. Moreover, the “Fold Selectivity (NCM-460/DLD1)” value in assay [1] was 7.2.
